Results on 24 compounds are retold here after patent US11590139B2, “Substituted aminopurine compounds, compositions thereof, and methods of treatment therewith” (Signal Pharmaceuticals, LLC, priority 2014, dated 2023).

Where only a bound is given, the exact number is not on record here.

The subject of one assay is Lox-IMVI melanoma cell line. As to the kind of experiment: Lox-IMVI anti-proliferative assay (growth inhibition, Cell Titer-Glo). The format is cell-based, human. The conditions noted are these: Homo sapiens; IC50 activity level in the cell-based Lox-IMVI anti-proliferative assay; read-out: Activity. The protocol: Determination of the Growth Inhibitory Effect of Aminopurine Compounds. The Lox-IMVI melanoma cell line (Source: NCI-DCTD, catalog No. 0507283) was maintained and tested in RPMI+10% FBS. The seeding density for the cell line was optimized to ensure assay linearity in 384-well plates.
Increasing concentrations of Aminopurine Compound (0.5 nM to 10 μM) were spotted in a 10-point serial dilution fashion (3-fold dilution) in duplicate within the plate via an acoustic dispenser (EDC ATS-100) into an empty 384-well plate. The dimethyl sulfoxide (DMSO) concentration was kept constant for a final assay concentration of 0.2% DMSO. Prior to testing, cells were grown and expanded in culture flasks to provide sufficient amounts of starting material. Cells were then diluted to their desired densities and added directly to the compound-spotted 384-well plates. Cells were allowed to grow for 72 hours in 5% CO2 at 37° C. At the time when exposure of cells to compound began (t0), initial cell number was assessed via a viability assay (Cell Titer-Glo) by quantifying the level of luminescence generated by adenosine-5′-triphosphate (ATP) present in viable cells. After 72 hours, cell viability of compound-treated cells was assessed via Cell Titer-Glo Luminescent Cell Viability Assay (Promega Corporation, Madison, Wis.) and read for luminescence.
All data was normalized and represented as a percentage of the DMSO-treated control cells after 72 h. Results were expressed as a IC50 value, which is the compound concentration required to inhibit 50% of the untreated control cells during the 72 hours of treatment.
A Four Parameter Logistic Model (Sigmoidal Dose-Response Model) was used to determine the compound's IC50. y=(A+((B−A)/(1+((C/x)^D))))
wherein: • A=YMin • B=YMax • C=EC50 • D=Hill Slope • IC50 is the compound concentration when Y=50% of DMSO control • Y=Luminescence unit
All inhibition curves were processed and evaluated using XLFit and Activity Base (IDBS).
Background: In ATP-based viability assays light output follows the ATP content of the culture.
For `NC(=O)[C@H]1CC[C@@H](n2c(Nc3c(Cl)cc(Cl)cc3Cl)nc3cnc(N[C@@H]4CC[C@@H](O)C4)nc32)CC1` [Example 212, (1S,4s)-4-(2-((1R,3R)-3-hydroxycyclopentylamino)-8-(2,4,6-trichlorophenylamino)-9H-purin-9-yl)cyclohexanecarboxamide], the IC50 is 0.25 to 0.5 µM.

Turning to `C[C@@H]1CC[C@@H](Nc2ncc3nc(Nc4c(F)ccc(Cl)c4F)n([C@H]4CC[C@@H](C(N)=O)CC4)c3n2)C[C@H]1O` [Example 358, (1S,4s)-4-(8-(3-chloro-2,6-difluorophenylamino)-2-((1R,3R,4R)-3-hydroxy-4-methylcyclohexylamino)-9H-purin-9-yl)cyclohexanecarboxamide], the IC50 is above 1 µM.

Regarding `NC(=O)[C@H]1CC[C@@H](n2c(Nc3c(Cl)cc(Cl)cc3Cl)nc3cnc(N[C@H]4C[C@H](O)C4)nc32)CC1` [Example 300, (1s,4s)-4-(2-((1r,3r)-3-hydroxycyclobutylamino)-8-(2,4,6-trichlorophenylamino)-9H-purin-9-yl)cyclohexanecarboxamide], the IC50 lay within 0.5 to 1 µM.

For the compound `N#Cc1cc(F)c(Nc2nc3cnc(NC4CCCC4)nc3n2[C@H]2CC[C@@H](C(N)=O)CC2)c(Cl)c1` [Example 369, (1s,4s)-4-(8-(2-chloro-4-cyano-6-fluorophenylamino)-2-(cyclopentylamino)-9H-purin-9-yl)cyclohexanecarboxamide], the IC50 lay in the range of 0.25 to 0.5 µM.

In the case of `NC(=O)[C@H]1CC[C@@H](n2c(Nc3c(F)cc(F)cc3Cl)nc3cnc(N[C@H]4COC[C@@H]4O)nc32)CC1` [Example 312, (1R,4s)-4-(8-(2-chloro-4,6-difluorophenylamino)-2-((3S,4R)-4-hydroxytetrahydrofuran-3-ylamino)-9H-purin-9-yl)cyclohexanecarboxamide], the IC50 is above 1 µM.

As to `NC(=O)[C@H]1CC[C@@H](n2c(Nc3c(F)cc(Cl)cc3F)nc3cnc(N[C@H]4CCC[C@@H]4O)nc32)CC1` [Example 269, (1R,4s)-4-(8-(4-chloro-2,6-difluorophenylamino)-2-((1S,2S)-2-hydroxycyclopentylamino)-9H-purin-9-yl)cyclohexanecarboxamide], the IC50 was above 1 µM.

As for `NC(=O)[C@H]1CC[C@@H](n2c(Nc3c(Cl)cc(F)cc3Cl)nc3cnc(NC4CC(F)(F)C4)nc32)CC1` [Example 231, (1s,4s)-4-(8-(2,6-dichloro-4-fluorophenylamino)-2-(3,3-difluorocyclobutylamino)-9H-purin-9-yl)cyclohexanecarboxamide], the IC50 was above 1 µM.

Regarding `Cc1cc(F)c(Nc2nc3cnc(NC4CCOCC4)nc3n2[C@H]2CC[C@@H](C(N)=O)CC2)c(F)c1` [Example 115, (1s,4s)-4-(8-(2,6-difluoro-4-methylphenylamino)-2-(tetrahydro-2H-pyran-4-ylamino)-9H-purin-9-yl)cyclohexanecarboxamide], the IC50 was in the range of 0.5 to 1 µM.

As for `COC[C@H](C)Nc1ncc2nc(Nc3c(Cl)cc(Cl)cc3Cl)n([C@H]3CC[C@@H](C(N)=O)CC3)c2n1` [Example 142, (1R,4s)-4-(2-((S)-1-methoxypropan-2-ylamino)-8-(2,4,6-trichlorophenylamino)-9H-purin-9-yl)cyclohexanecarboxamide], the IC50 was above 1 µM.

With `NC(=O)[C@H]1CC[C@@H](n2c(Nc3ccc(Cl)c(F)c3F)nc3cnc(NC4CCC(F)(F)CC4)nc32)CC1` [Example 290, (1s,4s)-4-(8-(4-chloro-2,3-difluorophenylamino)-2-(4,4-difluorocyclohexylamino)-9H-purin-9-yl)cyclohexanecarboxamide], the IC50 was in the range of 0.5 to 1 µM.

On to `NC(=O)[C@H]1CC[C@@H](n2c(Nc3c(F)cc(Cl)cc3F)nc3cnc(N[C@@H]4CC[C@@H](O)C4)nc32)CC1` [Example 215, (1S,4s)-4-(8-(4-chloro-2,6-difluorophenylamino)-2-((1R,3R)-3-hydroxycyclopentylamino)-9H-purin-9-yl)cyclohexanecarboxamide], for which the IC50 is 0.25 to 0.5 µM.

Still in this assay, the particulars now being: Homo sapiens; Lox-IMVI anti-proliferative assay, IC50 activity level; read-out: Activity.
Turning to `NC(=O)[C@H]1CC[C@@H](n2c(Nc3ccc(Cl)c(F)c3F)nc3cnc(N[C@H]4CCC[C@H](O)C4)nc32)CC1` [Example 463, (1R,4s)-4-(8-(4-chloro-2,3-difluorophenylamino)-2-((1S,3S)-3-hydroxycyclohexylamino)-9H-purin-9-yl)cyclohexanecarboxamide], the IC50 was above 1 µM.

As for `COC(=O)N1CCC[C@@H](Nc2ncc3nc(Nc4c(Cl)cc(F)cc4Cl)n([C@H]4CC[C@@H](C(N)=O)CC4)c3n2)C1` [Example 410, (R)-methyl 3-(9-((1s,4S)-4-carbamoylcyclohexyl)-8-(2,6-dichloro-4-fluorophenylamino)-9H-purin-2-ylamino)piperidine-1-carboxylate], the IC50 is above 1 µM.

Regarding `NC(=O)[C@H]1CC[C@@H](n2c(Nc3c(F)cc(Cl)cc3Cl)nc3cnc(N[C@H]4CCC[C@H](O)C4)nc32)CC1` [Example 464, (1R,4s)-4-(8-(2,4-dichloro-6-fluorophenylamino)-2-((1S,3S)-3-hydroxycyclohexylamino)-9H-purin-9-yl)cyclohexanecarboxamide], the IC50 lay within 0.5 to 1 µM.

As to `COC(=O)N1CCCC(Nc2ncc3nc(Nc4c(F)cc(Cl)cc4Cl)n([C@H]4CC[C@@H](C(N)=O)CC4)c3n2)C1` (stereo partly drawn) [Example 412, (R)-methyl 3-(9-((1s,4S)-4-carbamoylcyclohexyl)-8-(2,4-dichloro-6-fluorophenylamino)-9H-purin-2-ylamino)piperidine-1-carboxylate], the IC50 was 0.25 to 0.5 µM.

`C[C@]1(C(N)=O)CC[C@H](n2c(Nc3c(Cl)cc(C#N)cc3Cl)nc3cnc(NC4CCOCC4)nc32)CC1` [Example 475, (1r,4r)-4-(8-(2,6-dichloro-4-cyanophenylamino)-2-(tetrahydro-2H-pyran-4-ylamino)-9H-purin-9-yl)-1-methylcyclohexanecarboxamide]: the IC50 was in the range of 0.5 to 1 µM.

As to `C[C@@H](CO)Nc1ncc2nc(Nc3c(F)cc(F)cc3F)n([C@H]3CC[C@@](C)(C(N)=O)CC3)c2n1` [Example 546, (1R,4s)-4-(2-((S)-1-hydroxypropan-2-ylamino)-8-(2,4,6-trifluorophenylamino)-9H-purin-9-yl)-1-methylcyclohexanecarboxamide], the IC50 is 0.25 to 0.5 µM.

For `C[C@]1(O)CCC[C@@H](Nc2ncc3nc(Nc4c(F)cc(Cl)cc4F)n([C@H]4CC[C@@H](C(N)=O)CC4)c3n2)C1` [Example 426, (1S,4s)-4-(8-(4-chloro-2,6-difluorophenylamino)-2-((1R,3S)-3-hydroxy-3-methylcyclohexylamino)-9H-purin-9-yl)cyclohexanecarboxamide], the IC50 was above 1 µM.

On to `NC(=O)[C@H]1CC[C@@H](n2c(Nc3c(Cl)cc(Cl)cc3Cl)nc3cnc(N[C@H]4CCCC[C@@H](O)C4)nc32)CC1` [Example 444, (1R,4s)-4-(2-((1S,3R)-3-hydroxycycloheptylamino)-8-(2,4,6-trichlorophenylamino)-9H-purin-9-yl)cyclohexanecarboxamide], for which the IC50 is above 1 µM.

Still in this assay, the particulars now being: Homo sapiens; Lox-IMVI melanoma cell line, anti-proliferative assay; read-out: Activity (IC50 activity level).
For the compound `C[C@]1(C(N)=O)CC[C@@H](n2c(Nc3c(F)cc(F)cc3Cl)nc3cnc(N[C@H]4CC[C@H](O)C4)nc32)CC1` [Example 644, (1R,4s)-4-(8-(2-chloro-4,6-difluorophenylamino)-2-((1S,3S)-3-hydroxycyclopentylamino)-9H-purin-9-yl)-1-methylcyclohexanecarboxamide], the IC50 lay within 0.25 to 0.5 µM.

Turning to `NC(=O)[C@H]1CC[C@@H](n2c(Nc3c(Cl)cc(F)cc3Cl)nc3cnc(NC4CCC(c5ncno5)CC4)nc32)CC1` (stereo partly drawn) [Example 679, (1s,4s)-4-(2-(4-(1,2,4-oxadiazol-5-yl)cyclohexylamino)-8-(2,6-dichloro-4-fluorophenylamino)-9H-purin-9-yl)cyclohexanecarboxamide], the IC50 is above 1 µM.

On to `C[C@@H](CO)Nc1ncc2nc(Nc3ccc(C#N)c(Cl)c3Cl)n([C@H]3CC[C@@H](C(N)=O)CC3)c2n1` [Example 694, (1R,4s)-4-(8-(2,3-dichloro-4-cyanophenylamino)-2-((S)-1-hydroxypropan-2-ylamino)-9H-purin-9-yl)cyclohexanecarboxamide], for which the IC50 was above 1 µM.

`NC(=O)[C@H]1CC[C@@H](n2c(Nc3c(F)cc(Cl)cc3Cl)nc3cnc(N[C@@H]4CCCN(c5ccccc5)C4)nc32)CC1` [Example 748, (1S,4s)-4-(8-(2,4-dichloro-6-fluorophenylamino)-2-((R)-1-phenylpiperidin-3-ylamino)-9H-purin-9-yl)cyclohexanecarboxamide]: the IC50 was above 1 µM.

Consider `NC(=O)[C@H]1CC[C@@H](n2c(Nc3c(Cl)cc(Cl)cc3Cl)nc3cnc(NC[C@@H]4CCCC[C@@H]4O)nc32)CC1` [Example 654, (1R,4s)-4-(2-(((1S,2S)-2-hydroxycyclohexyl)methylamino)-8-(2,4,6-trichlorophenylamino)-9H-purin-9-yl)cyclohexanecarboxamide], for which the IC50 is above 1 µM.
